# What was measured:
# SNU-5 cells = test: MTT cell viability (cytotoxicity); conditions: SNU-5 cell lines, buffered aqueous solution, FIG. 15
# Procedure: SNU-5 cells were purchased from ATCC (cat. # CRL-5973) (American Type Culture Collection, Manassas, Va.), and maintained in Iscove's Modified Dulbecco's Medium (IMDM) (ATCC, cat. #30-2005) with 10% FBS (Fisherbrand Research Grade Fetal Bovine Serum, cat. #03-600-511) (Fisher Scientific UK Ltd., Loughborough). Cells (10,000/well) were seeded on 96-well plates and the desired particle amounts were added to the wells. The plates were incubated for an additional 24 h at 37° C. (5% CO2). After incubation, cell viability was evaluated using MTT. MTT dissolved in culture media (5 mg/mL) was added to each well (25 L/well). The cells were incubated for 4 h at 37° C. (5% CO2) after which time 0.08 M HCl in 2-propanol (100 L/well) was added. Light absorption was measured on a Synergy 2 multi-mode microplate reader (BioTek, Winooski, Vt.). The viability of the cells exposed to particles was expressed as a percentage of the viability of cells grown in the absence of particles on the same plate.
# Cells were grown to ˜90% confluence in 96 well plate format in complete growth media containing 10% fetal bovine serum. PCHNPs or TPPTs in 0.1 wt % chitosan were dosed on cells at concentrations ranging from 0.5 to 200 μg/mL. Viability after 24 h of exposure was evaluated using MTT reagent and compared to healthy cells on the same plate. […]
# [1] = In vitro hypoxia detection by Pt—POP (epi-fluorescence microscope); conditions: Pt—POP aqueous solution in a Petri dish
# Source text: For identification of hypoxic environments, Pt—POP has been used. The efficiency of Pt—POP as an oxygen sensor is shown in FIG. 16, including its effective usage for live bioimaging applications. […] The progressive phosphorescence intensity signal increase immediately after oxygen levels are decreased below 20% for the Pt—POP aqueous solution in a Petri dish should be noted. Results for this sensor in conjunction with the excellent animal model for hypoxia, C. elegans worms, are shown in FIG. 17, whereas similar results in E. coli bacteria and in D. rerio zebra fish are shown in FIGS. 18 and 19, respectively. In FIG. 18, conditions were: 18A: E. coli bacteria with 64X, DIC; 18B: E. coli bacteria with 64X, 405-520,222 g, 0.4 ms; 18C: E. coli bacteria incubated with Pt—POP 64X, 405-520,222 g, 0.4 ms; 18D: E. coli bacteria incubated with Pt—POP on 8th day 64X, 405-520,222 g, 0.4 ms. In FIG. 19, pictures were taken for stationary fish directly after injection (A) and 7 minutes after induced hypoxia (B), and for a swimming fish (C).
# [2] = target: T1, Bovine Serum Albumin (BSA) (Bos taurus, UniProt P02769); test: Labelling of BSA with Pt—POP, absorbance after dialysis; assay type: binding; conditions: after 24 hours of dialysis
# T1 construct: purchased Sigma-Aldrich
# Source text: A common model protein (BSA=bovine serum albumin) was labeled with Pt—POP to enable BSA differentiation, with oxygen sensitivity, in biological media.
# [3] = Storage and solution stability
# T1 sequence (P02769 25-607): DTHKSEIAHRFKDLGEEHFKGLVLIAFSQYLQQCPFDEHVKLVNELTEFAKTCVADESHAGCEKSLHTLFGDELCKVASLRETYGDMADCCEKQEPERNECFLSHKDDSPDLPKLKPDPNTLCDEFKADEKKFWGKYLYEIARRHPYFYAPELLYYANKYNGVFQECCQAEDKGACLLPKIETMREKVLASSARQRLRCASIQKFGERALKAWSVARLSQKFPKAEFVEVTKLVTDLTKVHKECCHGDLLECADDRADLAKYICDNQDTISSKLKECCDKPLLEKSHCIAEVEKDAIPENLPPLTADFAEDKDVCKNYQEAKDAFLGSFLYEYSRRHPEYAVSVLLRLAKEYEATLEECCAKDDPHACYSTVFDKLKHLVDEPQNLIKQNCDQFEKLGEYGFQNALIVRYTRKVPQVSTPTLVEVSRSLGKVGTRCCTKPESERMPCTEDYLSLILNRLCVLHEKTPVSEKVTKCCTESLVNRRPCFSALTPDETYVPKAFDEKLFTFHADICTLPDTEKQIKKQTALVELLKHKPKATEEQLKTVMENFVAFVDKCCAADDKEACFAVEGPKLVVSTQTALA
Molecule,biological toxicity (MTT assay) (SNU-5 cells),oxygen level below which phosphorescence intensity signal increases [1],absorbance of PBS control lower than BSA sample (binding to BSA) [2],stability in solution ([3]; in presence of a biocompatible polymer such as chitosan or PAN),stability in solution ([3]; without polymer)
Na8[Au(TPPTS)3] [AuP],benign,,,,
"O=S(=O)([O-])c1cccc(P(c2cccc(S(=O)(=O)[O-])c2)c2cccc(S(=O)(=O)[O-])c2)c1.[Na+].[Na+].[Na+] [TPPTS, 3,3′,3″-Phosphanetriyltris(benzenesulfonic acid) trisodium salt, reference compound]",benign,,,,
M4[Pt2(P2O5H2)4].2H2O [Pt—POP],,below 20%,approximately 10 times,dramatically enhanced from minutes to years,long-term instability

# Reference: patent US10253255B2, “Phosphorescent nanoparticles and their uses in biosensing and bioimaging” (University of North Texas, priority 2015, dated 2019)
